Measurements as given in PMC9323911, “Comparative Metabolomics Study of the Impact of Articaine and Lidocaine on the Metabolism of SH-SY5Y Neuronal Cells” (Metabolites, 2022).
“Also recorded” adds a separate entry of the source. Counter-ions that a name gives are not always drawn. Like-named read-outs stand apart in the source and are kept apart here.

Experiments:
[1] = tested on: SH-SY5Y human neuroblastoma cells; assay: resazurin cell viability assay; type: cell-based; conditions: for IC50: Homo sapiens, SH-SY5Y, read-out: IC50 (cell viability)
Method: Undifferentiated SH-SY5Y human neuroblastoma cells (ATCC® CRL-2266) were cultured in DMEM:F12 medium supplemented with 10% FBS and 1% antibiotic (100 IU/mLof penicillin and 100 μg/mL of streptomycin sulfate). Cells were grown in 75 cm^2 bottles and incubated at 37 °C under a humidified atmosphere with 5% CO2 for 48 h, until reaching semiconfluency. All experiments were performed on cells between passages 4 to 8.
To assess cell viability, the resazurin test was used. This assay evaluates the ability of viable cells to reduce resazurin (blue color) to a fluorescent, pink-colored compound, resorufin. Briefly, the cells were plated in a 96-well plate 24 h before treatment, at a density of 4 × 10^4 cells/mL. […] Each LA was solubilized in complete DMEM:F12 medium. Subsequently, the medium was removed, the wells were washed with 5 mM PBS and the cells were incubated with 10% resazurin for 4 h. At the end of this period, the absorbance was measured at 570 nm (λ1) and at 600 nm (λ2) (Multiskan™ FC Microplate Photometer, Thermofisher). The experiment was performed in triplicate and the differences between the two wavelengths (λ1–λ2) were calculated. The results were expressed in % of cell viability in relation to control and analyzed in GraphPad Prism® 6.0.

[2] = cited from earlier work
[3] = design: method as in PMID 31172838; conditions: ATC vs LDC; cited from earlier work
SH-SY5Y cells [4] = assay: 1H NMR metabolic profiling of cell lipid extracts; type: cell-based, human; conditions: lipid extract, vs control
Method: After reaching semiconfluence, 10 mL of cells (1 × 10^6 cells/mL) were plated on 90 mm diameter culture dishes and incubated for 24 h. […] Afterward, the medium was collected and the dishes washed with cold PBS, immediately before the solvent extraction procedure described below. Unexposed cells were used as controls. Each assay comprised duplicates of each condition and three independent assays were performed, giving a total of 6 replicates per condition.
The culture medium was collected from each plate (including cell-free medium incubated under the same conditions) in conical tubes and centrifuged at 1000× g for 10 min. Furthermore, 300 µL of the supernatant were collected for protein precipitation, as described by Kostidis et al.. Briefly, 600 µL of 100% methanol (v/v) at −80 °C were added to the collected supernatant ([…]). The mixture was kept at −20 °C for 30 min and centrifuged at 13,000× g for 20 min. The supernatant was transferred to another tube and vacuum dried (SpeedVac, Eppendorf, Hamburg, Germany). For extracting cellular metabolites, a biphasic extraction protocol (methanol:chloroform:water; 1:1:0.7) was used as previously described. The resulting polar extracts were dried under vacuum in a Speedvac concentrator, and the lipophilic extracts were dried under a nitrogen flow. All extracts were stored at −80 °C prior to NMR analysis.
For NMR analysis, dried aqueous and lipid extracts were dissolved, respectively, in 600 μL of deuterated phosphate buffer (PBS 100 mM, pH 7.4) containing 0.1 mM 3-(trimethylsilyl) propionic acid (TSP-d4), and 600 μL of deuterated chloroform containing 0.03% tetramethylsilane (TMS). After transferring 550 μL of each sample to 5 mm NMR tubes, analysis was performed on a Bruker Avance III HD 500 NMR spectrometer (University of Aveiro, Portuguese NMR Network) operating at 500.13 MHz for ^1H observation, at 298 K. Standard 1D ^1H spectra (pulse programs ‘noesypr1d’ and ‘zg’ for aqueous and lipid samples, respectively) were recorded with 32 k points, 7002.80 Hz spectral width, a 2 s relaxation delay and 512 scans. […]. Two-dimensional NMR spectra, namely, ^1H-^1H TOCSY, J-resolved and ^1H-^13C HSQC spectra, were also recorded for selected samples to aid metabolite identification. Signal assignment was based on matching 1D and 2D spectral information to reference spectra available in Chenomx 9.0 (Edmonton, AB, Canada), BBIOREFCODE-2–0–0 (Bruker Biospin, Rheinstetten, Germany) and HMDB.
To provide a quantitative measurement of metabolic variations, spectral integration and total area normalization of selected signals (vide Supplementary Table S1) were carried out in Amix-Viewer 3.9.15 (Bruker Biospin, Rheinstetten, Germany). For each metabolite, the percentage of variation (or fold change) in exposed samples was calculated relative to respective controls, along with the effect size (ES) and statistical significance (p-value). The variations with larger magnitude (|ES| > 0.8) were expressed in a heatmap. Loadings profiles and heatmap figures were generated using the R software version 4.1.3 (R Core Team (2020). R: A language and environment for statistical computing. R Foundation for Statistical Computing, Vienna, Austria. URL http://www.R-project.org/ accessed 23 May 2022).

SH-SY5Y cells [5] = conditions: cited from earlier work
[6] = design: method as in PMID 31172838; conditions: neutral species; cited from earlier work
[7] = tested on: neuronal cells of a different lineage (SHEP); conditions: 24 h; cited from earlier work

CCCNC(C)C(=O)Nc1c(C)csc1C(=O)OC (stereo not drawn) [ATC, Articaine hydrochloride]
IC10 (concentration reducing cell viability by 10%) ([1]; 24 h exposure): 1.2 mM
IC50 ([1]; 20 min, 20 min exposure): > 10 mM
IC50 ([1]; 1 h exposure): > 10 mM
IC50 ([1]; 4 h exposure): 5.4 ± 0.3 mM
IC50 ([1]; 24 h exposure): 3 ± 0.2 mM
IC50 ([1]; shortest exposure durations (20 min and 1 h)): > 10 mM
Plasma half-life [2]: 20 min
fold lower egg phosphatidylcholine/aqueous buffer partition coefficient (P) than LDC [3]: 10 ×
cholesterol level (SH-SY5Y cells [4]; IC50, 24 h): significant decrease
cholesteryl esters level (SH-SY5Y cells [4]; IC50, 24 h): prominent increase; also recorded: increased
phospholipids level (SH-SY5Y cells [4]; IC50, 24 h): decreases
triglycerides level (SH-SY5Y cells [4]; IC50, 24 h): decreases
effect on cells at very short exposure (SH-SY5Y cells [5]; 5 min exposure): no effect
LD50 (SH-SY5Y cells [5]; 20 min incubation of SH-SY5Y cells): 9.0 mM
Aqueous solubility [6]: 62.1 mM
LD50 [7]: 13.4 mM

CCN(CC)CC(=O)Nc1c(C)cccc1C [LDC, lidocaine hydrochloride]
IC10 (concentration reducing cell viability by 10%) ([1]; 24 h exposure): 1.2 mM
IC50 ([1]; 20 min): 7.3 ± 0.3 mM
IC50 ([1]; 1 h): 7.4 ± 0.3 mM
IC50 ([1]; 4 h): 5.7 ± 0.2 mM
IC50 ([1]; 24 h): 3.6 mM
IC50 [1]: ~7 mM
phosphatidylcholine (PtC) level (SH-SY5Y cells [4]; 24 h): decrease
triglycerides level (SH-SY5Y cells [4]; IC50, 24 h): accumulated; also recorded: increased
